The values that follow come from publication PMC6251916, “CKD-506, a novel HDAC6-selective inhibitor, improves renal outcomes and survival in a mouse model of systemic lupus erythematosus” (Scientific Reports, 2018).

Data set [1] is described as follows: Pharmacokinetic analysis after single intraperitoneal injection. The format is in vivo, NZB/W F1 mice. To be noted: for AUCinf / AUC0-24hr / Cmax / T1/2 / Tmax: plasma, mean ± SD; for AUCinf: extrapolated. As to the method: Four 23-week old female NZB/W F1 mice were purchased from Jackson Laboratory and housed in CKD Research Institute animal facility. This study was reviewed and approved by the Institutional Animal Care and Use Committee of CKD Research Institute. All procedures were in compliance with Animal Welfare Act Regulations and the Guide for the Care and Use of Laboratory Animals. The indicated amount of CKD-506 was injected intraperitoneally into NZB/W F1 mice. Blood samples were collected from retro-orbital plexus using a heparinized capillary tube under diethyl-ether anesthesia at pre-dose (0) and 0.25, 1, 2, 4, 8 and 24 hours post-dose at day of PK sampling. After centrifugation at 13,000 rpm for 4 min and 4 °C, ten microliters of the separated plasma was dispensed into microtube and 120 μl of organic solvent (90% acetonitrile (in MeOH, v/v)) was immediately added for deproteinization/extraction. The pre-treated samples had been kept at −70 °C until analysis. Ten microliters of internal standard (verapamil 500 ng/ml in acetonitrile) was added into the pre-treated plasma samples and vortexed for 1 min and then, centrifuged at 13,000 rpm for 4 min and 4 °C. Eighty microliters of the supernatant of the sample were transferred into a 96 well-autosampler plate and 40 μl of HPLC water was then added in each well. The concentration of CKD-506 in samples were analyzed using API 4000 QTRAP (AB SCIEX) (Framingham, MA).

For data set [2], the system named is acetylation of histone H4. The experiment in a line: Analysis of protein acetylation in human PBMC (western blot). The data set is classed as cell-based. To be noted: 4 hr. As for the experimental part:
(§1) Human peripheral blood mononuclear cells (PBMC) (IRB No. CKD-IRB-012) were seeded (1.0 × 10^6 cells/well) and cultured for 24 hr on 12-well plate before treatment of CKD-506 or LBH-589. The chemicals were treated for 4 hr. After harvesting cells, total protein extracts were prepared. The protein extracts were resolved in pre-made SDS-PAGE (NuPAGE® Bis-Tris Precast Gels, Invitrogen). Proteins were transferred onto polyvinylidene difluoride (PVDF) membrane and probed with the following antibodies; anti-acetyl α tubulin (1:5000, #5335, Cell Signaling Technology), α tubulin (1:2000, #2144, Cell Signaling Technology), anti-acetyl histone H4(1:5000, #8647, Cell Signaling Technology), anti-histone H4(1:1000, #2935S, Cell Signaling Technology), and anti-beta-actin (1:5000, #A5441, Sigma). The horseradish peroxidase-conjugated anti-rabbit IgG (1:5000, #7074S, Cell Signaling Technology) and anti-mouse IgG (1:5000, #7076 S, Cell Signaling Technology) were used as secondary antibodies. Acetylated proteins were visualized by chemiluminescence (RPN2235, GE healthcare) and detected by the Gel documentation system (ChemiDoc™, BioRad).
Background: In western blotting, separated proteins are transferred to a membrane and probed.

Data set [3] has as its system acetylation of α tubulin. The description is as above. The data set is classed as cell-based. As to the method: as §1

For orientation: Cmax means the highest concentration seen after dosing. A word on the Tmax: it is the time at which the peak concentration occurs. For orientation: IC90 means the point of the concentration-response curve where the effect stands at 90%.

Turning to CKD-506, in data set [1] (10 mg/kg i.p. single), the AUCinf was 818 ± 130 ng·h/mL, the AUC0-24hr is 737 ± 104 ng/h/mL, the Cmax was determined as 1336 ± 95.6 ng/mL and the T1/2 is 14.0 ± 2.60 h. In data set [1] (10 mg/kg i.p. single), the Tmax worked out at 0.25 ± 0.00 h. Also, in data set [1] (30 mg/kg), the “time for which dose is enough to inhibit in vivo HDAC6 activity” value was “more than 2 hr”. In data set [1] (30 mg/kg i.p. single), the AUCinf is 2129 ± 275 ng·h/mL, the AUC0-24hr is 1997 ± 290 ng/h/mL, the Cmax was 3749 ± 314 ng/mL and the T1/2 worked out at 9.64 ± 4.08 h. Besides, in data set [1] (30 mg/kg i.p. single), the time to peak (Tmax) amounted to 0.25 ± 0.00 h. For the same substance, in data set [1] (50 mg/kg), the “time for which dose is enough to inhibit (90% of) in vivo HDAC6 activity” value is “more than 4 hr”. Besides, in data set [1] (50 mg/kg i.p. single), the AUCinf was 4321 ± 408 ng·h/mL, the AUC0-24hr was found to be 4028 ± 419 ng/h/mL, the Cmax worked out at 7276 ± 585 ng/mL and the T1/2 stood at 10.0 ± 1.33 h. The Tmax in data set [1] (50 mg/kg i.p. single) turned out to be 0.25 ± 0.00 h. Also, the “exposure (Cmax and AUC) versus dose” value in data set [1] (10, 30, 50 mg/kg i.p.) is on record as “increased in a dose-dependent manner”. The “plasma half-life (T1/2)” value in data set [1] (single IP, overall statement) is given as “about 10 hrs”. For the same substance, the “effect on acetylation of histone H4” value in data set [2] is reported as “without affecting”. In addition, the “acetylation of α tubulin, % of maximum acetylation” value in data set [3] (at 100 nM, human PBMC) is reported as “about 85%”. For the same substance, the concentration for an effect of 90% (IC90) in data set [3] (read-out: IC90 for the induction of α tubulin acetylation) is roughly 100 nM.
